# Tests used:
# [1] = test system: nitric oxide synthase (NOS) / spinal NR2B-containing NMDA receptors; conditions: rats, cited from earlier work
# blood glutamate levels = conditions: rat; cited from earlier work
# plasma glutamate = conditions: neurosurgical patients, anesthesia; cited from earlier work
# [2] = test system: C57 BL/6 mice, controlled cortical impact (CCI) model; test: Controlled cortical impact (CCI) model in mice, intracranial pressure (ICP); assay type: in vivo; conditions: for therapeutic activity of metabolites of VAS203: mouse, in vivo
# From the text: The primary objective of this experiment was the characterization of the intracranial pressure (ICP) reduction by VAS3384 in the controlled cortical impact (CCI) model in mice. The secondary objective was characterization of the neuroprotective effect (reduction of the lesion volume) of VAS3384 in the controlled cortical impact model in mice.
# • Test compound A • Denomination: VAS 3384 • Active agent: 4-Amino-4-desoxy-7,8-dihydrobiopterin-dihydrochloride, obtained from Schircks Laboratories, Bauma, Switzerland • Detailed composition: VAS 3384 dissolved in sodium phosphate buffer (PBS) pH 7.4 • Formulation method: 15 mg of the test compound (VAS 3384) are dissolved in 500 μl PBS, pH 7.4. The solution is neutralized with 72 μl 1 N NaOH and filled up with 428 μl water (check pH). • Final concentration of active agent: 15 mg/ml • Appearance: yellow, clear solution • Storage (solid test compound): −20° C. • Dose applied: 560 mg/kg or 37.3 ml/kg • Way of administration: intravenous injection/infusion • Negative control • Denomination: sodium phosphate buffer (PBS) • Active agent: none • Detailed composition: Na2HPO4, NaH2PO4, 100 mM pH 7.4 • Formulation method: ready for use • Final concentration of active agent: not applicable • Appearance: colourless, clear solution • Expiration date: 3 months after preparation • Volume applied: 37.3 ml/kg • Way of administration: intravenous injection/infusion Experimental Procedure
# The animals (C57 BL/6 mice), under Dormicum/Methidomidin/Fentanyl-narcosis were fixed in a stereo tactical frame and the scalp was opened with a cut along the median. The skull bone
# was laid open and disinfected with H2O2. A hole of approx. 1.2 mm diameter was then drilled into the skull (Bregma 0.4-0.4 mm). The ICP-probe was introduced through this hole. The V. jugularis was be laid open and a catheter introduced. This catheter was introduced in the neck subcutaneously and fixed on the cap of the cage with a protective spiral of metal. This setup permitted an infusion in awake animals. The skull was opened above of the right cortex and mechanically traumatized (CCI model). The skullcap was then closed with the removed bone.
# Mice 1-9: 10 minutes after the trauma the animals got an intravenous bolus injection of 20 mg/kg VAS 3384 (=1.33 ml/kg) followed by an infusion of 1.5 mg/kg/min (=100 μl/kg/min) VAS 3384 over six hours to maintain the dose. After six hours, after termination of the infusion, and after 24 hours the ICP of the animals was measured. After 24 hours the animals were sacrificed, the brains dissected and the lesion volume determined by Nissl's method.
# Mice 10-18: 10 minutes after the trauma the animals received an intravenous bolus injection of 1.33 ml/kg PBS followed by an infusion of 100 μl/kg/min PBS over six hours. After six hours, after the termination of the infusion, and after 24 hours the ICP of the animals was measured.
# At the end of the observation period animals were sacrificed by cervical dislocation in deep halothane anaesthesia. The brains were carefully removed, frozen in powdered dry ice, and stored at −20° C. until further use. Ten μm coronal sections were prepared every 500 μm on a cryostat (CryoStar HM 560, Microm, Walldorf, Germany) and stained with cresyl violet. Sections were photographed with a digital camera system. The contusion area, the area of the non-traumatized tissue of the ipsilateral hemisphere, and the area of the contralateral hemisphere were determined on the digitized images with a standard image analysis software (Optimate 6.51, Media Cybernetics, Silver Spring, MD, USA) by an investigator blinded to the treatment of the animals. In order to correct for the swelling of contused tissue, the contusion area was calculated by subtracting the area of the non-traumatized tissue of the ipsilateral hemisphere from the area of the contralateral hemisphere. […]
# [3] = Plasma pharmacokinetics after single rectal administration of VAS203 gel in rabbits; assay type: in vivo
# Method: In this Example, VAS203 was formulated as a gel at a concentration of 450 mg VAS203/ml for single rectal administration in rabbits. This formulation of VAS203 as a gel (450 mg/ml) was filled in 2 ml syringes pact in foil with an oxygen absorber.
# Six rabbits were dosed with 1.5 ml of VAS203 gel (corresponding to a dosage of about 200 mg VAS203/kg body weight). Blood collection was carried out at pre-dose, 10 min, 20 min, 40 min, 1 h, 2 h, 3 h, 4 h, 5 h, 6 h, and 20-26 h after rectal administration. The whole blood samples (ca. 1-2 ml sufficient to obtain approx. 0.3 mL EDTA plasma/animal/sampling time), were collected into pre-cooled EDTA vials. To stabilise the blood samples, 1 mg Dithioerythritol (DTE) was added to approx. 1 mL blood. Within 15 minutes of blood collection the samples were centrifuged at 4° C. for 10 minutes. The plasma was transferred to vials and immediately frozen and stored at −80° C. for analysis.
# The plasma concentrations (in μg/L) of VAS203, 7,8-Dihydroaminobiopterin (VAS3384, ABH2, the compound of formula (II) as shown in here) and Aminobiopterin (VAS3382, AB) were measured by liquid chromatography mass spectrometry (LC-MS).
# [4] = Exposure control (pharmacokinetics) in NOSTRA III patients; assay type: in vivo, human; conditions: TBI patients; for mean absolute concentration 12 hours after end of infusion / mean absolute concentration at the end of the infusion: Ronopterin 17 mg/kg infused for 48 hours
# Method: An exposure control was performed with samples collected after end of infusion and 12 hours after end of infusion.
# iNOS = iNOS (Homo sapiens, UniProt P35228); test: In vitro iNOS inhibition; assay type: biochemical
# [5] = rabbits, single rectal VAS203 gel, about 200 mg/kg
smiles,measurement,setting,value
O=[N+]([O-])c1cccc2cn[nH]c12 [7-nitroindazole],oxaliplatin-induced pain behavior,[1],significantly suppressed
N[C@@H](Cc1cc(I)c(Oc2cc(I)c(O)c(I)c2)c(I)c1)C(=O)O [L-thyroxine],blood glutamate levels,blood glutamate levels,increased
FC(F)OC(Cl)C(F)(F)F (stereo not drawn) [Isoflurane],plasma glutamate,plasma glutamate,significantly increase
"C[C@H](O)[C@@H](O)c1cnc2nc(N)nc(N)c2n1 [aminobiopterin, Aminobiopterin]",therapeutic activity of metabolites of VAS203,[2],no therapeutic activity
same,elimination half-life,[3]; [5],approximately 4 hours
same,time to reach plateau of plasma concentration,[3]; [5],approx. 50 minutes
same,mean absolute concentration 12 hours after end of infusion,[4],37 ng/mL
same,mean absolute concentration at the end of the infusion,[4],52 ng/mL
"CC(O)C(O)C1=Nc2c(N)nc(N)nc2NC1 [VAS3384, 4-Amino-(6R,S)-7,8-dihydro-L-biopterin]",IC50,iNOS,12 µM
same,potency to inhibit the i-NOS in comparison to VAS203,iNOS,about ten times less potency
same,ICP after 6 hours,"[2]; CCI mice, i.v. infusion of 560 mg/kg over 6 h, mean +/- SD, n=9/group, placebo 14.1+/−1.8, p=0.0005",10.4+/−1.9
same,ICP after 24 hours,"[2]; CCI mice, i.v. infusion of 560 mg/kg over 6 h, placebo 10.7+/−2.3, non-significant",10.3+/−1.7
same,reduction of the increased ICP compared with the placebo group,"[2]; infusion of 560 mg/kg for six hours, starting 10 minutes after CCI",significantly reduction of the increased ICP
same,therapeutic activity of metabolites of VAS203,[2],still active
same,half-life,"[3]; rabbit, in vivo, 200 mg/kg",~1.33 h
same,elimination 12 hours after end of infusion,[4],56%
same,mean absolute concentration 12 hours after end of infusion,[4],476 ng/mL
same,mean absolute concentration at the end of the infusion,[4],1071 ng/mL
COC(=O)[C@@H](N)CCCNC(=N)N[N+](=O)[O-] [L-NAME],oxaliplatin-induced pain behavior,[1],significantly suppressed
C[C@@H](CN1CCC(Cc2ccccc2)CC1)[C@@H](O)c1ccc(O)cc1 [Ro25-6981],oxaliplatin-increased intensity of NADPH diaphorase staining in the superficial layer of spinal dorsal horn,[1]; intrathecal injection,reversed
CC(C)c1cccc(C(C)C)c1O [propofol],plasma glutamate,plasma glutamate,significantly increase
